Key:
Human Serotonin 5-HT6R = biological target: T1, Human Serotonin 5-HT6R (Homo sapiens, UniProt P50406); test: 5-HT6R functional assay, antagonistic mode (cAMP induced by 5-CT, 1321N1 cells); assay type: cell-based
T1 construct: host or cells: 1321N1 (frozen recombinant cells)
Method: The properties of compounds to inhibit cAMP production induced by a 5-HT6R agonist 5-CT (1000 nM) was evaluated. Compounds were tested in triplicate at eight concentrations (10^−11–10^−4 M). The level of cAMP was measured using frozen recombinant 1321N1 cells expressing the Human Serotonin 5-HT6R (PerkinElmer). Total cAMP was measured using the LANCE cAMP Detection Kit (PerkinElmer), according to the manufacturer’s instructions. For quantification of cAMP levels, 2000 cells/well ([…]) were incubated with a mixture of compounds ([…]) for 30 min at room temperature in a 384-well white opaque microtiter plate. After incubation, the reaction was stopped and cells were lysed by the addition of […] of working solution ([…] ULight-anti-cAMP) for 1 h at room temperature. Time-resolved fluorescence resonance energy transfer (TR-FRET) was detected by an Infinite M1000 Pro (Tecan) using instrument settings from the LANCE cAMP Detection Kit manual. […] The agonistic properties of compounds were determined with an analogous procedure, but without stimulation with 5-CT [10, 36].

T1 sequence (P50406 whole entry): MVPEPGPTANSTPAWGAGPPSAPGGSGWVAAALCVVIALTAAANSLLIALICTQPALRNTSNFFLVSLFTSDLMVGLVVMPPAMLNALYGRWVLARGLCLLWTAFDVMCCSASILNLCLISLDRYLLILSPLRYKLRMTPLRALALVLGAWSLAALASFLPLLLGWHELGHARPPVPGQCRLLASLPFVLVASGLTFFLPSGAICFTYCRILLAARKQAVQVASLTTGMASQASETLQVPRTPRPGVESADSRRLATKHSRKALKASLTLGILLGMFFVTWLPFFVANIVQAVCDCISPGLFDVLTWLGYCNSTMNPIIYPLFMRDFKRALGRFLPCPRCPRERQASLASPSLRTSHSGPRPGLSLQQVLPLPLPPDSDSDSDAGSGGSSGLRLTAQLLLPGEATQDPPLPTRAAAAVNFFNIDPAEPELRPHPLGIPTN

Brc1ccc2c(CNCCc3c[nH]c4ccccc34)c[nH]c2c1 [Compound 15]
5-HT6R function in words (antagonism) (Human Serotonin 5-HT6R): antagonist
Kb (Human Serotonin 5-HT6R; antagonistic mode, 5-CT 1000 nM, read-out: 5-HT6 Kb): 131 nM
PAMPA Pe ± SD (5 h, 200 µM, pH 7.4): 2.42 10^−6 cm/s
permeability in words (PAMPA): rather low Pe value but still higher than norfloxacin

Source: publication PMC8347595, “N-Skatyltryptamines—Dual 5-HT6R/D2R Ligands with Antipsychotic and Procognitive Potential” (Molecules, 2021)
